{
  "source": "paper PMC7707092",
  "about": "“Discovery and characterization of ORM‐11372, a novel inhibitor of the sodium‐calcium exchanger with positive inotropic activity” (British Journal of Pharmacology, 2020)",
  "key": {"healthy rabbits": {"tested_on": "healthy rabbits", "assay": "Haemodynamics in anaesthetized rabbits", "assay_type": "in vivo, rabbit", "set-up": "cardiac relaxation / HR / systolic BP: dose or concentration left out as unconfirmed", "method": "All animals were given multiple ascending infusion doses of ORM‐11372; blinding was not possible. Systemic BP (SP) and left ventricular pressure (LVP) values were measured with pressure transducers (SP for femoral artery: Isotec, Hugo Sachs Elektronic, Germany; a miniature pressure transducer Mikro‐Tip transducer SPR‐249, Millar Instruments was inserted into the left ventricle via the right carotid artery). The signal was amplified (DC‐bridge amplifier type 660, Hugo Sachs Elektronik, Germany), digitized (I/O connector block type SCB‐68, National Instruments, USA), recorded, and analysed (IHME 1.0.9, Fision Ltd, Finland). Left ventricular inotropic effect (LV + dP/dt max), relaxation (LV − dP/dt min), and HR values were analysed from LVP signals.\nMale New Zealand white rabbits (Harlan, Netherlands B.V.) were housed individually in polycarbonate cages (Scanbur Number 8 plastic cages with stainless steel door) with aspen bedding (Aspen Bricks M, Tapvei Ky, Kaavi, Finland). The acclimation period before experiments was at least 21 days. Rabbits weighing 2.0–2.3 kg (age 10–12 weeks) were used for haemodynamically assessing ORM‐11372 (no randomization, baseline values as own control). The diet provided to rabbits was SDS Stanrab (P) SQC pelleted (Special Diet Services Ltd, Witham, England). Water was provided ad libitum in polycarbonate bottles (750 ml).\nRabbits (n = 5) were sedated with i.v. (marginal vein) diazepam (2 mg·kg^−1, Diapam®, Orion Pharma). Anaesthesia was induced with i.v. S‐ketamine (10–20 mg·kg^−1 Ketanest‐S®, Pfizer) and maintained with S‐ketamine i.v. infusion (15–80 mg·kg^−1·h^−1). Animals were placed on a heating table (+38°C), and tracheas were cannulated. Rabbits were ventilated via a rodent ventilator (Ugo Basile 7025, Hugo Sachs Elektronik, Germany; respiratory volume 10 ml·kg^−1, 30 strokes·min^−1 for rabbits). […]"}, "[1]": {"tested_on": "guinea pig papillary muscle", "assay": "In vitro contraction dynamics in guinea pig papillary muscle", "conditions": "1 Hz, 37°C", "excerpt": "Guinea pigs (both sex, body weight ranging 342–565 g, Dunkin Hartley, M&B A/S, Ry, Denmark) were used in the study. The animals were housed in solid bottom polycarbonate cages (Makrolon® IV, 385 × 590 × 200 mm) with stainless steel wire mesh lids, up to three animals of same sex per cage. Autoclaved aspen chips (Tapvei Ky, Kaavi, Finland) were used as bedding. A commercially available rodent SDS FD1 (P) SQC pellet diet (Special Diet Services Ltd, Witham, England) and tap water from the public supply (Espoon vesilaitos, Espoo, Finland) were available ad libitum in polycarbonate bottles (800–1,000 ml) with plastic caps (Scanbur A/S, Ejby, Denmark).\nGuinea pigs were killed by a blow on the skull and the heart will be excised. Right ventricular papillary muscle was dissected and rinsed in ice‐cold Tyrode's solution. […]\nThe signal was acquired with a validated acquisition system ACFO v1.0 (Fision Oy, Finland). The following parameters were measured: twitch tension (Tw), rest tension (RT), time to peak tension (TTP), and half relaxation time (HRT). […]\nThe baseline twitch tensions were measured after a stabilization period of 20–40 min. Thereafter, vehicle (1.1% DMSO) or ORM‐11372 in Tyrode's solution was superfused into the cuvette for 15 min, and the effects were measured from the steady‐state level. […]"}, "[2]": {"tested_on": "human iPS cardiomyocyte action potentials", "assay": "Action potentials in spontaneously beating hiPSC cardiomyocytes (Cor.4U)", "assay_type": "cell-based", "conditions": "0.1 or 0.3 μM", "method": "APs were recorded in spontaneously beating Cor.4U CMs in the current clamp using the perforated patch technique and voltage‐sensitive dye (di‐4‐ANEPPS), in a 96‐well plate format. The latter ratiometric optical measurements were performed on the CellOPTIQ platform at Clyde Biosciences (Newhouse, UK).\nEffect of ORM-11372 (A: 0.1 µM; B: 0.3 µM) on human iPS cardiomyocyte action potentials. A left, Action potentials recorded in current-clamp at baseline (black trace), during exposure to ORM-11372 (red trace) and during wash off (grey trace). The dashed line denotes 0 mV. On the right is plotted, for the individual cardiomyocytes (n = 4), the action potential duration (APD) at 30, 50 and 90 % repolarisation in 0.1 µM ORM-11372 as the percentage of their baseline values. B, Action potentials and APDs recorded with voltage sensitive dye at baseline (black trace) and after 30 min treatment with either vehicle (0.1 % DMSO; blue trace and circles) or 0.3 µM ORM-11372 (red trace and squares). The APDs at 30, 50 and 90 % repolarisation […]\nvehicle and ORM-11372 (*p<0.05 unpaired Student’s t-test).\n(1 picture or pasted object on this page, not shown here)"}, "5‐HT2B receptor": {"target": "5‐HT2B receptor (Homo sapiens, UniProt P41595)", "sequence (P41595 whole entry)": "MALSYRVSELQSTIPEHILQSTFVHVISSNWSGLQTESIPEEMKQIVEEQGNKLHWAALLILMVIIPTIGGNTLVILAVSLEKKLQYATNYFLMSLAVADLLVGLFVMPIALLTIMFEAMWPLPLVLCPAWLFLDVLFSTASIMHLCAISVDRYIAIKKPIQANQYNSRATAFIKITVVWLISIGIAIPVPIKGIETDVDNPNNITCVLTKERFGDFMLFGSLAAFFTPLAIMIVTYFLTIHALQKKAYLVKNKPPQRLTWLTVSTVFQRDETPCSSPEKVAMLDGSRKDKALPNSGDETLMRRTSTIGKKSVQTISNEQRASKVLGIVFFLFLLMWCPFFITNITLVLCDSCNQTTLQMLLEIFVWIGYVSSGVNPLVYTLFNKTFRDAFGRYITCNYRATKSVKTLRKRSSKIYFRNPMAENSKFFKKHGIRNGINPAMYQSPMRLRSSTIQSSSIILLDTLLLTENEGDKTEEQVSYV", "assay": "5‐HT2B agonist and antagonist assay, intracellular calcium in CHO–5‐HT2B cells", "assay_type": "cell-based", "excerpt": "The hERG‐encoded voltage‐dependent potassium channel current (I hERG) cells to be studied were harvested with Detachin solution and either diluted with a volume of CHO cell serum‐free media (supplemented with 100 IU·ml^−1 of penicillin/streptomycin and 25‐mM HEPES) to obtain cells, for which the cell density was ~4 x10^6 cells·ml^−1, or plated on glass coverslips and used on the following 1–2 days. HEK 293 cells were transiently transfected using lipofectamine (Invitrogen, USA), with a human sodium voltage‐gated channel subunit 5 (hSCN5) A (transcript variant 2)‐containing plasmid, in Optimem medium. After a 5‐h incubation period, the transfection medium was replaced with the normal growth medium. The cells were harvested by trypsinization, centrifuged and resuspended in the appropriate extracellular solution for performing studies the next day. CHO–5‐HT2B cells were plated into 96‐well plates on the previous day, at a density of 4 x10^4 cells per well, with a modified version of the growth media.\nChanges in the intracellular calcium concentration of CHO–5‐HT2B cells in the probenecid‐R inger were measured, using Fluo‐4 or calcium 3 dyes and the FLEXstation, at 37°C. […]"}},
  "note": "Entries after “also recorded” stand apart in the source; their conditions may differ.",
  "data": [
    {"smiles": "Nc1cccc(-c2ccc(CNc3ccc(F)cc3)o2)c1", "note": "[ORM‐11372]", "values": [
      {"measurement": "HR", "setting": "healthy rabbits", "value": "did not have any effects"},
      {"measurement": "cardiac relaxation", "setting": "healthy rabbits", "value": "did not have any effects"},
      {"measurement": "systolic BP", "setting": "healthy rabbits", "value": "did not have any effects"},
      {"measurement": "increase in cardiac contractility (LV + dP/dt max)", "setting": "healthy rabbits; infusion 833 μg·kg^−1·min^−1", "value": "35 ± 8", "unit": "%"},
      {"measurement": "half relaxation time", "setting": "[1]", "value": "unchanged; also recorded: did not affect"},
      {"measurement": "twitch tension", "setting": "[1]; compared with vehicle", "value": "increased"},
      {"measurement": "hiPSC‐CM APD", "setting": "[2]", "value": "significant shortening"},
      {"measurement": "agonist activity at 5‐HT2B receptors", "setting": "5‐HT2B receptor", "value": "no agonist activity"},
      {"measurement": "inhibition at 10 µM", "setting": "5‐HT2B receptor; 10 μM, evoked by 10‐nM 5‐HT, read-out: inhibition of 5‐HT2B receptor‐mediated increase in intracellular calcium", "value": 38, "unit": "%"}
    ]}
  ]
}
